Test results: publication PMC9199881 (Clinical and Translational Science, 2022)

Key:
[1] = Plasma pharmacokinetics, Part B
healthy subjects [2] = assay: Safety assessment; type: in vivo, human; settings: Part B; 400 mg alone
healthy subjects [3] = assay: Concentration-QTc; type: in vivo, human; settings: Part B; 400 mg alone
healthy volunteers = settings: cited from earlier work
healthy subjects [4] = settings: 100 mg twice daily (b.i.d.); cited from earlier work
[5] = human, in vivo, 400 mg, Mean (SD), 400 mg single dose alone
[6] = human, in vivo, 400 mg, Median (range), 400 mg single dose alone

SMILES: COc1c(N2C[C@@H]3CCCN[C@@H]3C2)c(F)cc2c(=O)c(C(=O)O)cn(C3CC3)c12 [Moxifloxacin, moxifloxacin, reference compound]
- Tmax, Median (range) ([1]; 400 mg single dose alone): 2.1 (0.6–10) h
- AUC(0-t) ([1]; human, in vivo, 400 mg, AUC0–last, Mean (SD), 400 mg single dose alone): 22700 ng·h/mL
- AUC(0-inf) ([1]; human, in vivo, 400 mg, AUC0–∞, Mean (SD), 400 mg single dose alone): 27400 ng·h/mL
- Cmax [1, 5]: 2360 ng/mL
- Cmax [1, 6]: 2310 ng/mL
- Cmax ([1]; human, in vivo, 400 mg, range, single moxifloxacin 400 mg dose): 1230 to 4080 ng/mL
- Tmax [1, 5]: 2.2 h
- Tmax [1, 6]: ~2 h
- geometric mean peak concentration ([1]; moxifloxacin 400 mg): 2260 ng/mL
- Treatment-related TEAE: Abdominal pain, n (%) (healthy subjects [2]): 1 (2.8) n (%)
- Treatment-related TEAE: Diarrhea, n (%) (healthy subjects [2]): 1 (2.8) n (%)
- Treatment-related TEAE: Dizziness, n (%) (healthy subjects [2]): 1 (2.8) n (%)
- Treatment-related TEAE: Dysgeusia, n (%) (healthy subjects [2]): 0 n (%)
- Treatment-related TEAE: Frequent bowel movements, n (%) (healthy subjects [2]): 0 n (%)
- Treatment-related TEAE: Gastrointestinal disorders, n (%) (healthy subjects [2]): 1 (2.8) n (%)
- Treatment-related TEAE: Headache, n (%) (healthy subjects [2]): 0 n (%)
- Treatment-related TEAE: Herpex simplex, n (%) (healthy subjects [2]): 0 n (%)
- Treatment-related TEAE: Infections and infestations, n (%) (healthy subjects [2]): 1 (2.8) n (%)
- Treatment-related TEAE: Lethargy, n (%) (healthy subjects [2]): 1 (2.8) n (%)
- Treatment-related TEAE: Nausea, n (%) (healthy subjects [2]): 1 (2.8) n (%)
- Treatment-related TEAE: Nervous system disorders, n (%) (healthy subjects [2]): 2 (5.6) n (%)
- Treatment-related TEAE: Somnolence, n (%) (healthy subjects [2]): 0 n (%)
- Treatment-related TEAE: Subjects with ≥1 TEAE, n (%) (healthy subjects [2]): 3 (8.3) n (%)
- Treatment-related TEAE: Vomiting, n (%) (healthy subjects [2]): 1 (2.8) n (%)
- incidence of treatment-related TEAEs (healthy subjects [2]): 8.3%
- participants with diarrhea (healthy subjects [2]): 2.8%
- predicted ΔΔQTcF at the observed geometric mean Cmax (healthy subjects [3]): 14.7 ms

SMILES: CC#CC(=O)N1CCC[C@H]1c1nc(-c2ccc(C(=O)Nc3ccccn3)cc2)c2c(N)nccn12 [acalabrutinib]
- prolongation of the QTc interval or clinically relevant ECG effects (healthy volunteers): no prolongation of the QTc interval or clinically relevant ECG effects

SMILES: C=CC(=O)N1CCC(CNc2ncnc(N)c2-c2ccc(Oc3ccccc3)cc2)CC1 [evobrutinib]
- prolongation of the QTc interval or clinically relevant ECG effects (healthy volunteers): no prolongation of the QTc interval or clinically relevant ECG effects

SMILES: CC(C)c1nc(CN(C)C(=O)N[C@H](C(=O)N[C@@H](Cc2ccccc2)C[C@H](O)[C@H](Cc2ccccc2)NC(=O)OCc2cncs2)C(C)C)cs1 [ritonavir]
- effect on QT (healthy subjects [4]): did not alter QT

SMILES: C=CC(=O)N1CCC([C@@H]2CCNc3c(C(N)=O)c(-c4ccc(Oc5ccccc5)cc4)nn32)CC1 [zanubrutinib]
- prolongation of the QTc interval or clinically relevant ECG effects (healthy volunteers): no prolongation of the QTc interval or clinically relevant ECG effects
